According to PMC10250618, “Synthesis, structure-activity relationships and biological evaluation of benzimidazole derived sulfonylurea analogues as a new class of antagonists of P2Y1 receptor” (Frontiers in Pharmacology, 2023):
≈ marks a conversion by molar mass, not a printed value. Counter-ions that a name gives are not always drawn. Like-named read-outs stand apart in the source and are kept apart here.

Assays:
[1] = target: T1, t-P2Y1 (Meleagris gallopavo, UniProt P49652); test: Calcium mobilization assay, t-P2Y1 transfected 1321N1 astrocytoma cells; format: cell-based; settings: for IC50: Ca2+ mobilization inhibition, transfected 1321N1 cells, read-out: IC50 ± SEM t-P2Y1; for IC50 / inhibition at 100 µM: 100 μM ADP; for inhibition at 100 µM: 1321-N1, final conc of 100 μM
T1 construct: host or cells: human 1321N1 astrocytoma cells, stably transfected
Procedure: (§1) Dr. Gary A. Weisman provided human-1321N1 astrocytoma cells that had been transfected by the tP2Y1R, hP2Y2R, hP2Y4R, and rP2Y6R and untransfected 1321N1 astrocytoma cells (University of Missouri Mo., Bond Life Science Center). The DMEM Dulbecco’s Modified Eagle -Medium (Gibco) was added in flasks to cultivate the cell line. 10% of the Fetal bovine serum was also added to the media together with 500 μg/mL of Geneticin (G418) and 1% of the Pen/Strep. The cells in T-75 flask were then cultured and incubated in a CO2 incubator which was maintained at (5%) and 37°C temperature until 90% of the cells were confluent. Throughout the experiment, cells were periodically checked for the confluency and strictly watched for the microbial contamination.
(§2) The FLUOstar Galaxy (BMG LABTECH GmbH, Ortenberg, Germany) microplate reader with two injectors was used to measure the Ca^2+ fluorescence of synthetic compounds. For this assay, 1321N1 transfected cells (t-P2Y1, h-P2Y2, h-P2Y4, and r-P2Y6) were cultured in T-75 flask. When cells reached the confluency of 80%–90%, they were washed with PBS and then Trypsin was added. After trypsinization for 3 min, 20,000 cells/well were allowed to seed in a black wall and 96 well clear bottom plate which was coated with Poly-D-Lysine and allowed to incubate for 24 h in 37°C, 5% CO2 incubator. After incubation, 200 μL culture media was changed with 100 μL HBSS containing Fura-2 AM which is calcium chelating dye and allowed the plate to incubate for 45 min in dark at temp of 37°C in incubator which is maintained with carbon dioxide (5% CO2). After incubation for 45 min, synthesized molecules were added to HBSS washed cells in each well of 96 well plate and re-incubated for 30 min at 37°C. In next step, injection of the endogenous ligand such as ADP through the injector was followed by excitation and emission measurements of Fura-2 AM at 380/520 nm and 340/520. Final volume of the assay per well 200 μL. IC50 values were computed for the compounds displaying more than 50% of activity using Prism 5.0 software (Graph Pad., Inc., San Diego. California, United States) by using analysis i.e., nonlinear regression ([Kassack et al., 2002]; [Ullmann et al., 2005]).

[2] = target: T2, h-P2Y2 (Homo sapiens, UniProt P41231); test: Calcium mobilization assay, h-P2Y2 transfected 1321N1 astrocytoma cells; format: cell-based; settings: 500 μM ATP; for IC50: Ca2+ mobilization inhibition, transfected 1321N1 cells, read-out: IC50 ± SEM h-P2Y2; for inhibition at 100 µM: 1321-N1, final conc of 100 μM
T2 construct: host or cells: human 1321N1 astrocytoma cells, stably transfected
Procedure: as §1, §2

[3] = target: T3, h-P2Y4 (Homo sapiens, UniProt P51582); test: Calcium mobilization assay, h-P2Y4 transfected 1321N1 astrocytoma cells; format: cell-based; settings: 500 μM UTP; for IC50: Ca2+ mobilization inhibition, transfected 1321N1 cells, read-out: IC50 ± SEM h-P2Y4; for inhibition at 100 µM: 1321-N1, final conc of 100 μM, read-out: % Inhibition h-P2Y4
T3 construct: host or cells: human 1321N1 astrocytoma cells, stably transfected
Procedure: as §1, §2

[4] = target: T4, r-P2Y6 (Rattus norvegicus, UniProt Q63371); test: Calcium mobilization assay, r-P2Y6 transfected 1321N1 astrocytoma cells; format: cell-based; settings: for inhibition at 100 µM: 1321-N1, final conc of 100 μM; for inhibition at 100 µM / IC50: 100 μM of UDP; for IC50: Ca2+ mobilization inhibition, transfected 1321N1 cells, read-out: IC50 ± SEM r-P2Y6
T4 construct: host or cells: human 1321N1 astrocytoma cells, stably transfected
Procedure: as §1, §2

[5] = MTT assay, non-transfected 1321N1 astrocytoma cells; format: cell-based, human; settings: human, non-transfected 1321N1 astrocytoma cells; at 50 µM; non-transfected astrocytoma 1321N1 cells; triplicate; read-out: H-1321N1 Cell Line (%cytotoxicity ±SEM)
Procedure: A 96-well plate was used to plate 20,000 human 1321N1 astrocytoma cells and allowed for incubation for 24 h at temp of 37°C in CO2 (5%) incubator. Next to this, the prepared culture media was changed to media which was free from FBS, the test compounds were added and the incubation process was repeated. After incubation of 24 h, the serum free media from the wells was discarded, and 100 μL of the reagent i.e., MTT reagent was pipetted. Plate was then additionally incubated at 37°C for 4 h. Utilizing a microplate reader, absorbance was determined at 570 nm and 630 nm for calculation of cell viability (FLUOstarOmega Microplate Reader-BMG LABTECH GmbH, Ortenberg, Germany) ([Sauer et al., 2009]).

[6] = MTT assay, HEK-293; format: cell-based; settings: human, HEK-293 cells; at 50 µM; triplicate; read-out: HEK-293 Cell Line (%cytotoxicity ±SEM)
[7] = MTT assay, HeLa; format: cell-based; settings: human, HeLa cells; at 50 µM; triplicate; read-out: HeLa Cell Line (%cytotoxicity ±SEM)
[8] = Aqueous solubility assay (UV absorption); format: physicochemical
Procedure: In eppendorf tubes, over-saturated chemical solutions were prepared by mixing synthesized compound with PBS buffer (pH 7.4). To confirm compound saturation, suspensions were rapidly vortexed for 1 min, sonicated at ambient temperature for 10 min, and then incubated with overnight shaking. After that, compound suspensions were centrifuged at 15,000 RPM for 20 min. Supernatants were cautiously taken out of the tubes and filtered once more using 0.22 µm syringe filters. By using UV-vis absorption spectrometry with standard curves and an already-determined absorption extinction coefficient in the same buffer, the concentrations of the drug in the supernatants were identified.

[9] = target: hP2Y1; set-up: method as in Peng et al., 2018; settings: Figure 1, reported antagonist; ref Peng et al., 2018; cited from earlier work
[10] = was reported; cited from earlier work
[11] = tested on: P2Y12; set-up: method as in Oestreich, 2010; Boldron et al., 2014; settings: Figure 1, reported antagonists; ref Oestreich, 2010; Boldron et al., 2014; cited from earlier work
[12] = tested on: P2X3; set-up: method as in Bae et al., 2022; settings: Figure 1, reported antagonist; ref Bae et al., 2022; cited from earlier work

T4 sequence (Q63371 whole entry): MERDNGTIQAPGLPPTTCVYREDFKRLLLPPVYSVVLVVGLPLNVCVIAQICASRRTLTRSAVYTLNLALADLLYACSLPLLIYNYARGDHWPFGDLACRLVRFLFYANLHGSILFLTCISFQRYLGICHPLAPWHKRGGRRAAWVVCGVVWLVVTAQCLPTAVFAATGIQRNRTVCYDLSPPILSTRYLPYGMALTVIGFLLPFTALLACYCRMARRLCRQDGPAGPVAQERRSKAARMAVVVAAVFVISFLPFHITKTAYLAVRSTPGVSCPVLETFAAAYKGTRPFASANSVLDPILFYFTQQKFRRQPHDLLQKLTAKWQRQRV
T3 sequence (P51582 whole entry): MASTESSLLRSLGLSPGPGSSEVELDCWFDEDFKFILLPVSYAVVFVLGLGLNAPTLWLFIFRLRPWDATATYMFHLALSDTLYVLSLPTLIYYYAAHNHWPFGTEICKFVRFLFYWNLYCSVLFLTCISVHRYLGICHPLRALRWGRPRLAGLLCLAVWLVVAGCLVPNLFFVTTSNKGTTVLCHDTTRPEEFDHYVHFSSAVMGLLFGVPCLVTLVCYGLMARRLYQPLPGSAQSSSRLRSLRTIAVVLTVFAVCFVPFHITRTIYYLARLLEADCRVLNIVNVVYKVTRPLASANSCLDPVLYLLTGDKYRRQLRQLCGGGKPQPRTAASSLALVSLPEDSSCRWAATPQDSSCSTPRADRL
T1 sequence (P49652 whole entry): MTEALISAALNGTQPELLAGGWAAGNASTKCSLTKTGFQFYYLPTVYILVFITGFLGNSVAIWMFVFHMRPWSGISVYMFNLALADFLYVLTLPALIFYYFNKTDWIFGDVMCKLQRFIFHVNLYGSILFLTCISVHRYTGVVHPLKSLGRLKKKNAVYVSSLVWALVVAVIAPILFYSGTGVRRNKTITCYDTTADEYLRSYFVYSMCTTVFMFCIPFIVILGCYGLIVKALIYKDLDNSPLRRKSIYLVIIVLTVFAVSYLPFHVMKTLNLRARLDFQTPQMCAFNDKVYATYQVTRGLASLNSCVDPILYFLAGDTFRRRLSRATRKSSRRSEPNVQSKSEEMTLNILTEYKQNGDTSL
T2 sequence (P41231 whole entry): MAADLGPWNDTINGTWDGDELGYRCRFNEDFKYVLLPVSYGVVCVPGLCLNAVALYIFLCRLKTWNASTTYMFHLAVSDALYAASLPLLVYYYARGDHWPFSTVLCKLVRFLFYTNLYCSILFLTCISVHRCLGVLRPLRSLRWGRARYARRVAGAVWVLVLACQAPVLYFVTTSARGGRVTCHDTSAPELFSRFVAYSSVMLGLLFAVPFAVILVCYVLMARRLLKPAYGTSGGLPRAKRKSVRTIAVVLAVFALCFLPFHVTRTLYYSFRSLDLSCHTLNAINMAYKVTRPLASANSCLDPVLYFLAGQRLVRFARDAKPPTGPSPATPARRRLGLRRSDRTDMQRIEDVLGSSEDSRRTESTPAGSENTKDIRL

Compound	IC50 [1]	inhibition at 100 µM [4]	cytotoxicity at 24 h, 50 µM [5]	cytotoxicity at 24 h, 50 µM [6]	cytotoxicity at 24 h, 50 µM [7]	melting point	inhibition at 100 µM [3]	inhibition at 100 µM [2]	other results
Nc1nc2cc(Cl)ccc2n1C(=O)NS(=O)(=O)c1cc(Cl)cc(Cl)c1O [1h, 2-Amino-5-chloro-N-((3,5-dichloro-2-hydroxyphenyl)sulfonyl)-1H-benzo [d]imidazole-1-carboxamide]	0.19 ± 0.04 µM	34%	32.8 ± 0.7%	27.4 ± 1.2%	22.3 ± 0.8%	124 to 126 °C			inhibition of P2Y2 less as compared to P2Y1 ([1]; P2Y2 versus P2Y1): 20 fold; IC50 [2]: 4.13 ± 1.02 µM; IC50 [3]: 910 ± 40 nM; activity against P2Y6 in words [4]: inactive; solubility ([8]; Figure 7, UV absorption at 384 nm): 0.287 mg/mL (≈ 659 µM); solubility ([8]; aqueous buffer, thermodynamic from solid, PBS buffer (pH 7.4), UV absorption spectroscopy, read-out: aqueous solubility): 0.287 mg/mL (≈ 659 µM)
O=C(NS(=O)(=O)c1ccccc1)n1c(Cl)nc2ccccc21 [1q, 2-Chloro-N-(phenylsulfonyl)-1H-benzo [d]imidazole-1-carboxamide]	14.6 ± 1.01 µM	48%	33.6 ± 0.7%	30.1 ± 0.2%	29.7 ± 1.1%	179 to 181 °C	13%		IC50 [2]: 13.6 ± 1.97 µM
O=C(NS(=O)(=O)c1ccc(-c2ccccc2)cc1)n1c(Cl)nc2ccccc21 [1r, N-([1.1′-biphenyl]-4-ylsulfonyl)-2-chloro-1H-benzo [d]imidazole-1-carboxamide]	23.44 ± 0.22 µM	34%	31.5 ± 0.4%	33.2 ± 0.1%	26.5 ± 0.5%	172 to 174 °C	22%	47%	
O=C(NS(=O)(=O)c1ccc(Cl)cc1)n1c(Cl)nc2ccccc21 [1s, 2-Chloro-N-((4-chlorophenyl)sulfonyl)-1H-benzo [d]imidazole-1-carboxamide]	3.11 ± 0.23 µM		14.4 ± 0.2%	12.1 ± 0.7%	19.5 ± 0.2%	180 to 182 °C			IC50 [2]: 6.15 ± 1.08 µM; IC50 [3]: 2670 ± 70 nM; IC50 [4]: 12.7 ± 1.02 µM
O=C(NS(=O)(=O)c1ccc([N+](=O)[O-])cc1)n1c(Cl)nc2ccccc21 [1t, 2-Chloro-N-((4-nitrophenyl)sulfonyl)-1H-benzo [d]imidazole-1-carboxamide]	6.04 ± 1.03 µM		27.6 ± 0.4%	21.4 ± 1.1%	20.3 ± 0.4%	166 to 168 °C	26%	42%	IC50 [4]: 12.4 ± 1.1 µM
COc1ccc(S(=O)(=O)NC(=O)n2c(OC)nc3ccccc32)cc1 [1u, 2-Methoxy-N-((4-methoxyphenyl)sulfonyl)-1H-benzo [d]imidazole-1-carboxamide]		18%	25.5 ± 0.3%	32.2 ± 0.9%	21.7 ± 0.6%	177 to 179 °C	30%	10%	inhibition at 100 µM [1]: 31%
COc1nc2ccccc2n1C(=O)NS(=O)(=O)c1ccc(Cl)cc1 [1v, N-((4-chlorophenyl)sulfonyl)-2-methoxy-1H-benzo [d]imidazole-1-carboxamide]		19%	19.7 ± 0.1%	12.2 ± 0.7%	24.1 ± 0.3%	152 to 154 °C	23%	19%	inhibition at 100 µM [1]: 42%
Cc1ccc(S(=O)(=O)NC(=O)n2c(N)nc3ccccc32)cc1 [1w, 2-Amino-N-tosyl-1H-benzo [d]imidazole-1-carboxamide]		39%	23.2 ± 0.3%	27.4 ± 0.3%	21.3 ± 0.5%	165 to 167 °C	41%	23%	inhibition at 100 µM [1]: 49%
Cc1ccc(S(=O)(=O)NC(=O)n2c(N)nc3cc(Cl)ccc32)cc1 [1x, 2-Amino-5-chloro-N-tosyl-1H-benzo [d]imidazole-1-carboxamide]	10 ± 0.12 µM	41%	12.6 ± 0.5%	32.1 ± 0.7%	29.8 ± 1.5%	188 to 190 °C	29%	38%	
Nc1nc2ccccc2n1C(=O)NS(=O)(=O)c1ccc(-c2ccccc2)cc1 [1y, N-([1.1′-biphenyl]-4-ylsulfonyl)-2-amino-1H-benzo [d]imidazole-1-carboxamide]		23%	43.1 ± 0.8%	39.7 ± 0.2%	32.6 ± 0.3%	176 to 178 °C	18%	20%	inhibition at 100 µM [1]: 12%
CC(C)(C)c1ccccc1Oc1ncccc1NC(=O)Nc1ccc(OC(F)(F)F)cc1 [BPTU, 1-(2-(2-tert-butyl-phenoxy)pyridin-3-yl)-3–4-(trifluoromethoxy) phenylurea]									Ki [9]: 6 nM; solubility in water [10]: less than 0.1 mg/mL
CNc1cc2[nH]c(=O)n(-c3ccc(NC(=O)NS(=O)(=O)c4ccc(Cl)s4)cc3)c(=O)c2cc1F [Elinogrel]									IC50 [11]: 20 nM
Cc1nc2c([nH]1)C(=O)C(Cl)=C(Nc1ccc(F)c(F)c1)C2=O [KCB77033]									IC50 [12]: 1030 nM
CCCC(=O)c1cnn(-c2ccc(NC(=O)c3cn(CC(=O)N4CCNCC4)c4ccc(Cl)cc34)nn2)c1C [SAR 216471 hydrochloride]									IC50 [11]: 17 nM
